We go through 54 compounds from US11969425B2, “Inhibitor of indoleamine-2,3-dioxygenase (IDO)” (InventisBio LLC, priority 2016, dated 2024).

For this assay, the system named is kynurenine production in HeLa cells. As to the kind of experiment: Inhibition of kynurenine production in HeLa cells. The following applies: 48 h. Type of assay: cell-based, human. The method, then: The effect of compounds described herein on the inhibition of kynurenine production in HeLa cells (derived from human cervical cancer) was determined. HeLa cells were seeded into a 96-well culture plate at a density of 5×10^3 per well in RPMI1640/phenol red free media (from GIBCO) with 2 mM L-glutamine and 10% fetal bovine serum (FBS, from GIBCO) and grown overnight in a 37° C. incubator with 5% CO2. Twenty-four hours later, human IFN-γ (from GIBCO) (final concentration 50 ng/mL) and test compound solutions (serially diluted to different wells) were added to each well with a final volume of 200 uL per well. Forty-eight hours after incubation with compounds, 140 uL supernatant was taken from each well and was transferred to a new 96-well plate. Ten microliters of 6.1 N trichloroacetic acid were added into each well, mixed and incubated at 50° C. for 30 minutes. The reaction mixture was then centrifuged for 10 minutes at 2500 rpm and 100 uL of the supernatant per well was transferred to another 96 well plate and mixed with 100 uL of 2% (w/v) p-dimethylaminobenzaldehyde in acetic acid. The yellow color derived from kynurenine was measured at 480 nm using a SPECTRAmax i3 reader. Each compound concentration was done in triplicates and compound IC50 value was calculated using nonlinear regression using Graphpad Prism 5.0.
The inhibitory activity of representative compounds described herein, compared with another IDO inhibitor, such as INCB-24360, Controls 1 and 2 are shown in Table 2.

[1] abbreviates: HeLa cells, human IFN-γ 50 ng/mL, kynurenine read at 480 nm, read-out: IC50.
[2] abbreviates: Homo sapiens, HeLa, HeLa cells, human IFN-γ 50 ng/mL, kynurenine read at 480 nm, read-out: IC50.

Where two headings read alike, the source gives them in different places. Some results are limits rather than exact numbers.

As to `CCC(C(=O)O)c1ccc(N(CC(C)C)CC(C)C)c(NC(=O)Nc2cc(C)no2)c1` (single isomer, unassigned) [Compound 59A], the IC50 under setting [1] is 12.7 nM.

For the compound `CCC(C(=O)O)c1ccc(N(CC(C)C)CC(C)C)c(NC(=O)Nc2cc(C)no2)c1` (single isomer, unassigned) [Compound 59B], the IC50 under setting [1] was 0.1 nM.

Consider `CCC(C(=O)O)c1ccc(N(CC(C)C)CC(C)C)c(Nc2ccc(S(C)(=O)=O)cc2)c1` (single isomer, unassigned) [Compound 60A], for which the IC50 under setting [1] came out at 33 nM.

On to `CCC(C(=O)O)c1ccc(N(CC(C)C)CC(C)C)c(Nc2ccc(S(C)(=O)=O)cc2)c1` (single isomer, unassigned) [Compound 60B], for which the IC50 under setting [1] was 2.8 nM.

Regarding `CCC(C(=O)O)c1ccc(N(CC(C)C)C2CCCCC2)c(NC(=O)Nc2ccc(F)cc2F)c1` (single isomer, unassigned) [Compound 62A], the IC50 under setting [1] stood at 1.4 nM.

Regarding `CCC(C(=O)O)c1ccc(N(CC(C)C)C2CCCCC2)c(NC(=O)Nc2ccc(F)cc2F)c1` (single isomer, unassigned) [Compound 62B], under setting [1], the half-inhibitory concentration (IC50) is 0.2 nM.

As to `CCC(C(=O)O)c1ccc(N(CC(C)C)C2CCCCC2)c(NC(=O)Nc2cncnc2)c1` (single isomer, unassigned) [Compound 64A], the IC50 under setting [1] turned out to be 4.2 nM.

Consider `CCC(C(=O)O)c1ccc(N(CC(C)C)C2CCCCC2)c(NC(=O)Nc2cncnc2)c1` (single isomer, unassigned) [Compound 64B], for which the IC50 under setting [1] was found to be 0.2 nM.

Regarding `CCC(C(=O)O)c1ccc(N(CC(C)C)C2CCOCC2)c(NC(=O)Nc2ccc(F)cc2F)c1` (single isomer, unassigned) [Compound 65A], the IC50 under setting [1] stood at 0.8 nM.

Turning to `CCC(C(=O)O)c1ccc(N(CC(C)C)C2CCOCC2)c(NC(=O)Nc2ccc(F)cc2F)c1` (single isomer, unassigned) [Compound 65B], the IC50 under setting [1] was found to be 12 nM.

In the case of `CCC(C(=O)O)c1ccc(N(CC(C)C)C2CCOCC2)c(Nc2ccc3c(c2)OC(F)(F)O3)c1` (single isomer, unassigned) [Compound 71A], under setting [1], the IC50 was found to be 0.3 nM.

For `CCC(C(=O)O)c1ccc(N(CC(C)C)C2CCOCC2)c(Nc2ccc3c(c2)OC(F)(F)O3)c1` (single isomer, unassigned) [Compound 71B], under setting [1], the IC50 came to 0.9 nM.

As to `CC(C)CN(CC(C)C)c1ccc(CC(=O)O)cc1NC(=O)Nc1ccc(F)cc1F` [Compound 1, 2-[4-[bis(2-methylpropyl)amino]-3-[[(2,4-difluorophenyl)carbamoyl]amino]phenyl]acetic acid], the IC50 under setting [2] was determined as 130 nM.

In the case of `CC(C)CN(CC(C)C)c1ccc(C(C)C(=O)O)cc1NC(=O)Nc1ccc(F)cc1F` (stereo not drawn) [Compound 2], the IC50 under setting [2] is 9.1 nM.

In the case of `CC(C)CN(CC(C)C)c1ccc(C(C)(C)C(=O)O)cc1NC(=O)Nc1ccc(F)cc1F` [Compound 4], under setting [2], the IC50 was 14.9 nM.

On to `CC(C)CN(CC(C)C)c1c(F)cc(Cc2nnn[nH]2)cc1NC(=O)Nc1ccc(F)cc1F` [Compound 6], for which the IC50 under setting [2] was 8.5 nM.

Take `CC(C)CN(CC(C)C)c1ccc(C2(C(=O)O)CC2)cc1NC(=O)Nc1ccc(F)cc1F` [Compound 7, 1-[4-[bis(2-methylpropyl)amino]-3-[[(2,4-difluorophenyl)carbamoyl]amino]phenyl]cyclopropane-1-carboxylic acid]: the IC50 under setting [2] stood at 6.3 nM.

Take `CC(C)CN(CC(C)C)c1ccc(C2(C(=O)O)CCOCC2)cc1NC(=O)Nc1ccc(F)cc1F` [Compound 8, 4-[4-[bis(2-methylpropyl)amino]-3-[[(2,4-difluorophenyl)carbamoyl]amino]phenyl]oxane-4-carboxylic acid]: the IC50 under setting [2] came to 47 nM.

Consider `CC(C)CN(CC(C)C)c1ccc(C2(c3nnn[nH]3)CCCC2)cc1NC(=O)Nc1ccc(F)cc1F` [Compound 10, 3-[2-[bis(2-methylpropyl)amino]-5-[1-(1H-1,2,3,4-tetrazol-5-yl)cyclopentyl]phenyl]-1-(2,4-difluorophenyl)urea], for which, under setting [2], the IC50 was 0.9 nM.

As to `CC(C)CN(c1ccc(C2(C(=O)O)CCCC2)cc1NC(=O)Nc1ccc(F)cc1F)C1CCCCC1` [Compound 11], the IC50 under setting [2] is 0.9 nM.

As for `CC(C)CN(c1ccc(C2(C(=O)O)CCCC2)cc1NC(=O)Nc1ccc(F)cc1F)C1CCC(F)(F)CC1` [Compound 12], the IC50 under setting [2] amounted to 0.5 nM.

For `O=C(Nc1ccc(F)cc1F)Nc1cc(C2(C(=O)O)CCCC2)ccc1N(CCC(F)(F)F)Cc1ccc(OC(F)(F)F)cc1` [Compound 13], under setting [2], the IC50 worked out at 0.6 nM.

Consider `Cc1ccc(NC(=O)Nc2cc(C3(C(=O)O)CCCC3)ccc2N(CCC(F)(F)F)Cc2ccc(OC(F)(F)F)cc2)cc1` [Compound 14], for which the IC50 under setting [2] is 0.5 nM.

Turning to `Cc1cc(NC(=O)Nc2cc(C3(C(=O)O)CCCC3)ccc2N(CC(C)C)C2CCOCC2)on1` [Compound 15], under setting [2], the IC50 is 1.4 nM.

Consider `Cc1cc(NC(=O)Nc2cc(C3(C(=O)O)CCC3)ccc2N(CC(C)C)CC(C)C)on1` [Compound 17], for which, under setting [2], the IC50 was 0.8 nM.

Regarding `CC(C)CN(CC(C)C)c1ccc(C2(C(=O)O)CCC2)cc1NC(=O)Nc1cncnc1` [Compound 18], under setting [2], the IC50 was 6.6 nM.

As for `CC(C)CN(CC(C)C)c1ccc(C2(c3nnn[nH]3)CCC2)cc1NC(=O)Nc1ccc(F)cc1F` [Compound 19], the IC50 under setting [2] stood at 1 nM.

On to `CCN(c1ccc(C2(C(=O)O)CCC2)cc1NC(=O)Nc1ccc(F)cc1F)C1CCCCC1` [Compound 20], for which the IC50 under setting [2] came out at 0.5 nM.

On to `CC(C)CN(c1ccc(C2(C(=O)O)CCC2)cc1NC(=O)Nc1ccc(F)cc1F)C1CCCCC1` [Compound 21], for which the IC50 under setting [2] amounted to 0.6 nM.

Regarding `COCCN(c1ccc(C2(C(=O)O)CCC2)cc1NC(=O)Nc1ccc(F)cc1F)C1CCCCC1` [Compound 22], the IC50 under setting [2] worked out at 2.1 nM.

With `CC(C)CN(CC(C)(C)O)c1ccc(C2(C(=O)O)CCC2)cc1NC(=O)Nc1ccc(F)cc1F` [Compound 23], under setting [1], the IC50 was found to be 61.5 nM.

In the case of `CCN(c1ccc(C2(C(=O)O)CCC2)cc1NC(=O)Nc1ccc(F)cc1F)C1CCOCC1` [Compound 24], the IC50 under setting [2] amounted to 2.2 nM.

For the compound `Cc1cc(NC(=O)Nc2cc(C3(C(=O)O)CCC3)ccc2N(CC(C)C)C2CCOCC2)on1` [Compound 27], under setting [2], the IC50 was determined as 5.7 nM.

For `CC(C)CN(c1ccc(C2(C(=O)O)CCC2)cc1NC(=O)Nc1ccc(F)cc1F)C1CCN(C)CC1` [Compound 28], the IC50 (Homo sapiens, HeLa) is > 316 nM.

`CC(C)CN(CC(C)C)c1ccc(C2(C(=O)O)CC(F)(F)C2)cc1NC(=O)Nc1ccc(F)cc1F` [Compound 29]: under setting [2], the IC50 was found to be 4 nM.

Regarding `CC(C)CN(CC(C)C)c1ccc(C2(c3nnn[nH]3)CC(F)(F)C2)cc1NC(=O)Nc1ccc(F)cc1F` [Compound 30], the IC50 under setting [2] worked out at 1 nM.

Regarding `CC(C)CN(CC(C)C)c1ccc(OCC(=O)O)cc1NC(=O)Nc1ccc(F)cc1F` [Compound 31], under setting [2], the IC50 is 11.8 nM.

Regarding `CC(C)CN(CC(C)C)c1ccc(OC(C)(C)C(=O)O)cc1NC(=O)Nc1ccc(F)cc1F` [Compound 32], the IC50 under setting [2] amounted to 0.8 nM.

Consider `CC(C)CN(CC(C)C)c1ccc(OC(C)(C)C(=O)O)cc1NC(=O)Nc1cncnc1` [Compound 33], for which, under setting [2], the IC50 turned out to be 48 nM.

In the case of `Cc1cc(NC(=O)Nc2cc(OC(C)(C)C(=O)O)ccc2N(CC(C)C)CC(C)C)on1` [Compound 34], under setting [2], the IC50 was found to be 7.7 nM.

As to `CC(C)CN(c1ccc(OC(C)(C)C(=O)O)cc1NC(=O)Nc1ccc(F)cc1F)C1CCCCC1` [Compound 35], under setting [2], the IC50 turned out to be 1.9 nM.

As to `CC(C)CN(CC(C)C)c1ccc(SCC(=O)O)cc1NC(=O)Nc1ccc(F)cc1F` [Compound 36], the IC50 under setting [2] is 2.8 nM.

Consider `CC(C)CN(CC(C)C)c1ccc(SC(C)(C)C(=O)O)cc1NC(=O)Nc1ccc(F)cc1F` [Compound 37], for which the IC50 under setting [2] came out at 19.9 nM.

Consider `CC(C)CN(c1ccc(SC(C)(C)C(=O)O)cc1NC(=O)Nc1ccc(F)cc1F)C1CCCCC1` [Compound 41], for which the IC50 under setting [2] is 6.4 nM.

`CC(C)CN(c1ccc(SC(C)(C)C(=O)O)cc1NC(=O)Nc1ccc(F)cc1F)C1CCOCC1` [Compound 43]: the IC50 under setting [2] turned out to be 134 nM.

Take `COCCN(c1ccc(SC(C)(C)C(=O)O)cc1NC(=O)Nc1ccc(F)cc1F)C1CCCCC1` [Compound 45]: the IC50 under setting [2] is 78 nM.

For `CC(C)CN(CC(C)C)c1ccc(C2(C(=O)O)CCCC2)cc1Nc1nc2ccccc2[nH]1` [Compound 47], under setting [2], the IC50 amounted to 5.6 nM.

Turning to `CC(C)CN(CC(C)C)c1ccc(C2(C(=O)O)CCCC2)cc1Nc1ncccn1` [Compound 49], the IC50 under setting [2] is > 316 nM.

Turning to `CC(C)CN(c1ccc(C2(C(=O)O)CCC2)cc1NC(=O)C(C)C)C1CCOCC1` [Compound 50], the IC50 under setting [2] was > 316 nM.

On to `CC(C)CN(CC(C)C)c1ccc(C2(C(=O)O)CCCC2)cc1Nc1ccc(Cl)cc1` [Compound 51], for which the IC50 under setting [2] is 2.3 nM.

As to `CC(C)CN(c1ccc(C2(C(=O)O)CCC2)cc1Nc1ccc(Cl)cc1)C1CCCCC1` [Compound 52], under setting [2], the IC50 was determined as 0.3 nM.

Take `CCOc1ccc(Nc2cc(C3(C(=O)O)CCC3)ccc2N(CC(C)C)C2CCCCC2)cc1` [Compound 53]: under setting [2], the IC50 came to 1 nM.

For the compound `CC(C)CN(c1ccc(C2(C(=O)O)CCC2)cc1Nc1cncnc1)C1CCCCC1` [Compound 54], the IC50 under setting [2] worked out at 0.6 nM.

`CCOc1ncc(Nc2cc(C3(C(=O)O)CCC3)ccc2N(CC(C)C)C2CCCCC2)cn1` [Compound 55]: the IC50 under setting [2] was 0.3 nM.

As a reminder, the IC50 is the concentration at which inhibition is half-maximal.
